Laboratory results published in publication PMC5083757, “Effect of veliparib (ABT-888) on cardiac repolarization in patients with advanced solid tumors: a randomized, placebo-controlled crossover study” (Cancer Chemotherapy and Pharmacology, 2016).
Like-named read-outs stand apart in the source and are kept apart here. Marks after values point to notes of the source that are not given here.

Tests used:
[1] = tested on: patients with advanced solid tumors; test: ECG assessment of QTcF interval, single-dose placebo-controlled crossover study; type: in vivo, human
From the text: This was a multicenter phase 1, single-dose, double-blind, placebo-controlled, randomized, 3-period, 6-sequence crossover study (NCT02009631). The primary objective was to evaluate the effect of veliparib on corrected QT interval using Fridericia’s formula (QTcF) in patients with solid tumors. Secondary objectives were to assess the pharmacokinetics, safety, and tolerability of single-dose veliparib.
(§1) Following screening, on the morning of day 1 of each period, eligible patients received a single dose of veliparib 200 mg, veliparib 400 mg, or placebo according to the treatment sequence assigned at randomization, administered orally between 8.00 and 10.00 AM, and approximately 30 min after the start of a low-fat breakfast. Each treatment period lasted 3–7 days, allowing for ≥3 days of drug washout between periods. After study completion, patients were permitted to enter an extension study (NCT02033551) to assess the safety of veliparib as monotherapy or in combination with chemotherapy.
Serial, resting 12-lead ECG measurements were performed at screening, on day 1 of each period at 0 h (pre-dose), and at 0.5, 1, 2, 3, 10, and 24 h post-dose, and at the final study visit on day 3 of period 3. ECGs were performed in triplicate except for a single ECG at screening. All ECG tracings were evaluated using the automated signal analysis algorithm of eECG/ABBIOS to measure predefined ECG intervals (RR, PR, QT, and QRS duration). All ECGs were manually verified and adjudicated by an expert over-reader who was blinded to treatment, time, and patient identification. T- and U-wave morphologies were independently reviewed by a qualified cardiologist who was similarly blinded to treatment, time, and patient identification. QTcF was determined as follows: QTCF=QT/RR3
A linear mixed effects model was used for the analysis of baseline-adjusted QTcF intervals (∆QTcF) for the first 24 h after dosing with either placebo, veliparib 200 mg, or veliparib 400 mg. The primary endpoint was the baseline-adjusted difference in mean QTcF between the veliparib 400 mg dose and placebo (∆∆QTcF) at six post-dose time points. Absence of QTcF effect was established if the 95 % upper confidence bound for the mean ∆∆QTcF between veliparib 400 mg and placebo was below the 10 ms threshold of clinical significance for all post-dose time points, in accordance with ICH E14 guidelines. For the QT/QTc, PR, and QRS interval variables, appropriate cutoff points defining the categories of the largest change from baseline were determined. For QTc, the cutoff points for these categories were as specified in the ICH E14 guidelines. The dataset for ECG evaluations included all available patients’ data.

[2] = Pharmacokinetic assessment of veliparib plasma concentrations after a single oral dose; type: in vivo, human; conditions: for half-life / AUC(0-inf) / Vd/F / AUC(0-t) / Cmax / Tmax: human, plasma; for Vd/F: read-out: VZ/F
Procedure: as §1
In each period, blood samples were collected for pharmacokinetic analysis at 0 h (pre-dose), and at 0.5, 1, 2, 3, 10, and 24 h post-dose. Plasma concentrations of veliparib were determined using a validated online solid-phase extraction followed by liquid chromatography with tandem mass spectrometric detection with a lower limit of quantitation for veliparib of 1.05 ng/mL. Veliparib pharmacokinetic parameters were estimated using non-compartmental methods.

[3] = tested on: patients with advanced solid tumors; test: Exposure-response model (veliparib plasma concentration vs ∆∆QTcF); type: in vivo, human; conditions: linear mixed effects model
Procedure: To establish the nonsignificance of a hysteresis effect, the criteria discussed in Darpo et al. were applied. Subsequently, linear mixed effects models were tested, with or without an additional lagged effect compartment, depending on the outcome of the test for hysteresis. A final model was chosen based on goodness of fit, plausibility of the parameters, and Bayesian information criterion (BIC). The relationship between ∆∆QTcF and veliparib concentration was modeled using the following equation: ΔΔQTcFi,j=ηi(2)+(Slope0+ηi(1))×Concentrationi,j+εi,j for subject i and time point j. η ^(2) represents the inter-subject variability on intercept (fixed effect on intercept is set to zero). Slope0 represents fixed effect on slope. η ^(1) represents the inter-subject variability of the Slope. ε i,j is the residual variability in subject i at time j.

[4] = tested on: patients with advanced solid tumors; test: Safety: treatment-emergent adverse events; type: in vivo, human; conditions: for TEAE: AE leading to discontinuation / TEAE: Abdominal pain / TEAE: Any AE / TEAE: Any fatal AE / TEAE: Any serious AE / TEAE: Back pain / TEAE: Constipation / TEAE: Decreased appetite / TEAE: Dehydration / TEAE: Diarrhea / TEAE: Dizziness / TEAE: Dysgeusia / TEAE: Fatigue / TEAE: Hypomagnesemia / TEAE: Myalgia / TEAE: NCI CTCAE grade 3 or 4 / TEAE: Nausea / TEAE: Neck pain / TEAE: Vomiting: N = 47; for TEAE: At least possibly related to study drug: N = 47, as assessed by investigator; for Deaths: N = 47, includes non-treatment-emergent deaths
Procedure: Safety was evaluated by AE monitoring, vital signs, physical examination, and laboratory testing throughout the study. Treatment-emergent AEs (TEAEs) were recorded from the time of first dose of study drug until 30 days from the last day of dosing or discontinuation, or until the first dose of study drug for patients enrolling in the NCT02033551 extension study. TEAEs were classified by Medical Dictionary for Regulatory Activities version 17.0 system organ class and preferred term. The severity of AEs was rated according to the National Cancer Institute Common Terminology Criteria for Adverse Events version 4.0. The safety population consisted of all patients’ data.

[5] = tested on: patients with BRCA1/2-mutated or wild-type tumors; set-up: method as in earlier work; conditions: cited from earlier work
dogs = conditions: preclinical studies in dogs; cited from earlier work
[6] = any of the three regimens (200 mg, 400 mg, placebo)
[7] = veliparib 200 mg single oral dose vs placebo
[8] = veliparib 400 mg single oral dose vs placebo
[9] = 200 mg single oral dose, N = 46, mean ± SD
[10] = 400 mg single oral dose, N = 46, mean ± SD
[11] = 200 mg single oral dose, N = 47, mean ± SD

With `C[C@]1(c2nc3c(C(N)=O)cccc3[nH]2)CCCN1` [Veliparib] the “patients with QTcF value greater than 480 ms” value [1, 6] was “No patient”, the “patients with change from baseline in QTcF interval greater than 30 ms” value [1, 6] was “No patient” and the “maximum 95 % upper confidence bound for mean ∆∆QTcF” value [1, 7] was 6.1 ms. The “maximum mean ∆∆QTcF” value [1, 7] was 3.6 ms, the “maximum 95 % upper confidence bound for mean ∆∆QTcF” value [1, 8] was 8.9 ms and the “maximum mean ∆∆QTcF” value [1, 8] was 6.4 ms. For the same compound, the “AUC∞/dose” value [2, 9] was 59.9 ± 19.9^b (ng h/mL)/mg, the CL/F [2, 9] was 18.2 ± 5.09^b L/h and the Cmax/dose [2, 9] was 6.62 ± 1.89^b (ng/mL)/mg. The “AUC∞/dose” value [2, 10] was 63.8 ± 20.9 (ng h/mL)/mg, the CL/F [2, 10] was 17.3 ± 5.27 L/h and the Cmax/dose [2, 10] was 6.51 ± 2.12 (ng/mL)/mg. For the same compound, the half-life ([2]; oral, similar for the 200 mg and 400 mg dose groups, read-out: terminal phase elimination half-life (t1/2) (converted)) was roughly 5.5 h, the half-life ([2]; 200 mg single oral dose, N = 46, harmonic mean ± pseudo SD, read-out: t1/2 (converted)) was 5.3 ± 1.1 h and the AUC(0-inf) [2, 9] was 12000 ± 3980 ng·h/mL. For the same compound, the Vd/F [2, 9] was 141 ± 42.8 L, the AUC(0-t) [2, 11] was 11100 ± 3120 ng·h/mL and the Cmax [2, 11] was 1320 ± 378 ng/mL. For the same compound, the Tmax [2, 11] was 2.4 ± 0.7 h, the half-life ([2]; 400 mg single oral dose, N = 46, harmonic mean ± pseudo SD, read-out: t1/2 (converted)) was 5.4 ± 1.3 h and the AUC(0-inf) [2, 10] was 25500 ± 8370 ng·h/mL. For the same compound, the AUC(0-t) [2, 10] was 23800 ± 7100 ng·h/mL, the Cmax [2, 10] was 2610 ± 847 ng/mL and the Tmax [2, 10] was 2.5 ± 0.6 h. For the same compound, the Vd/F [2, 10] was 138 ± 48.4 L, the “mean time to Cmax (Tmax)” value ([2]; similar for the 200 mg and 400 mg dose groups) was “approximately 2.5 h” and the “systemic exposure vs dose” value ([2]; single oral doses 200 mg and 400 mg) was “increased in a dose-proportional manner”. For the same compound, the “predicted mean ∆∆QTcF at geometric mean of Cmax” value ([3]; 200 mg dosing) was 2.45 ms, the “predicted upper 95th percentile ∆∆QTcF at geometric mean of Cmax” value ([3]; 200 mg dosing) was 3.28 ms and the “predicted mean ∆∆QTcF at geometric mean of Cmax” value ([3]; 400 mg dosing) was 4.62 ms. For the same compound, the “predicted upper 95th percentile ∆∆QTcF at geometric mean of Cmax” value ([3]; 400 mg dosing) was 6.19 ms, the “TEAE: AE leading to discontinuation” value ([4]; 200 mg) was 0 n (%) and the “TEAE: Abdominal pain” value ([4]; 200 mg) was 2 (4.3) n (%). The “TEAE: Any AE” value ([4]; 200 mg) was 17 (36.2) n (%), the “TEAE: Any fatal AE” value ([4]; 200 mg) was 0 n (%) and the “TEAE: Any serious AE” value ([4]; 200 mg) was 0 n (%). For the same compound, the “TEAE: Back pain” value ([4]; 200 mg) was 0 n (%), the “TEAE: Constipation” value ([4]; 200 mg) was 0 n (%) and the “TEAE: Decreased appetite” value ([4]; 200 mg) was 0 n (%). The “TEAE: Dehydration” value ([4]; 200 mg) was 2 (4.3) n (%), the “TEAE: Diarrhea” value ([4]; 200 mg) was 1 (2.1) n (%) and the “TEAE: Dizziness” value ([4]; 200 mg) was 0 n (%). For the same compound, the “TEAE: Dysgeusia” value ([4]; 200 mg) was 0 n (%), the “TEAE: Fatigue” value ([4]; 200 mg) was 2 (4.3) n (%) and the “TEAE: Hypomagnesemia” value ([4]; 200 mg) was 0 n (%). The “TEAE: Myalgia” value ([4]; 200 mg) was 4 (8.5) n (%), the “TEAE: NCI CTCAE grade 3 or 4” value ([4]; 200 mg) was 1 (2.1) n (%) and the “TEAE: Nausea” value ([4]; 200 mg) was 6 (12.8) n (%). For the same compound, the “TEAE: Neck pain” value ([4]; 200 mg) was 0 n (%), the “TEAE: Vomiting” value ([4]; 200 mg) was 2 (4.3) n (%) and the “TEAE: At least possibly related to study drug” value ([4]; 200 mg) was 7 (14.9) n (%). For the same compound, the Deaths ([4]; 200 mg) was 0 n (%), the “TEAE: AE leading to discontinuation” value ([4]; 400 mg) was 1 (2.1) n (%) and the “TEAE: Abdominal pain” value ([4]; 400 mg) was 2 (4.3) n (%). The “TEAE: Any AE” value ([4]; 400 mg) was 23 (48.9) n (%), the “TEAE: Any fatal AE” value ([4]; 400 mg) was 0 n (%) and the “TEAE: Any serious AE” value ([4]; 400 mg) was 0 n (%). For the same compound, the “TEAE: Back pain” value ([4]; 400 mg) was 2 (4.3) n (%), the “TEAE: Constipation” value ([4]; 400 mg) was 1 (2.1) n (%) and the “TEAE: Decreased appetite” value ([4]; 400 mg) was 1 (2.1) n (%). The “TEAE: Dehydration” value ([4]; 400 mg) was 0 n (%), the “TEAE: Diarrhea” value ([4]; 400 mg) was 3 (6.4) n (%) and the “TEAE: Dizziness” value ([4]; 400 mg) was 3 (6.4) n (%). The “TEAE: Dysgeusia” value ([4]; 400 mg) was 2 (4.3) n (%), the “TEAE: Fatigue” value ([4]; 400 mg) was 3 (6.4) n (%) and the “TEAE: Hypomagnesemia” value ([4]; 400 mg) was 0 n (%). For the same compound, the “TEAE: Myalgia” value ([4]; 400 mg) was 1 (2.1) n (%), the “TEAE: NCI CTCAE grade 3 or 4” value ([4]; 400 mg) was 1 (2.1) n (%) and the “TEAE: Nausea” value ([4]; 400 mg) was 4 (8.5) n (%). For the same compound, the “TEAE: Neck pain” value ([4]; 400 mg) was 2 (4.3) n (%), the “TEAE: Vomiting” value ([4]; 400 mg) was 4 (8.5) n (%) and the “TEAE: At least possibly related to study drug” value ([4]; 400 mg) was 11 (23.4) n (%). The Deaths ([4]; 400 mg) was 0 n (%), the TEAE myalgia ([4]; veliparib 200 mg) was 8.5% and the TEAE nausea ([4]; veliparib 200 mg) was 12.8%. The “patients experiencing treatment-emergent adverse events” value ([4]; veliparib 200 mg) was 36.2%, the TEAE diarrhea ([4]; veliparib 400 mg) was 6.4% and the TEAE dizziness ([4]; veliparib 400 mg) was 6.4%. It also gave a TEAE fatigue ([4]; veliparib 400 mg) of 6.4%, a TEAE nausea ([4]; veliparib 400 mg) of 8.5% and a TEAE vomiting ([4]; veliparib 400 mg) of 8.5%. The “patients experiencing treatment-emergent adverse events” value ([4]; veliparib 400 mg) was 48.9%, the dose-limiting toxicities ([5]; at 400 mg twice daily, in patients with BRCA1/2-mutated and wild-type tumors, respectively) was “grade 3 nausea/vomiting and grade 2 seizure” and the “maximum tolerated dose of single-agent veliparib” value ([5]; phase 1 study, patients with BRCA1/2-mutated or wild-type tumors) was 400 mg twice daily. The “effect on corrected QT (QTc) interval” value (dogs) was “mild but concentration-dependent increase”.
